According to US20240252677A1, “ONE-COMPONENT DELIVERY SYSTEM FOR NUCLEIC ACIDS” (The Trustees of the University of Pennsylvania, priority 2021, published 2024):

Tests used:
liver = test: In vivo mRNA delivery, IVIS imaging of organs: liver; parameters: species or system mice; key to Organs with luminescence: liver: strong: Strong meant the luminescence intensity in that organ was relatively high, compared to other organs; weak: Weak meant the luminescence intensity in that organ was relatively low, compared to other organs; details: for Organs with luminescence: liver (weak/strong): Table 14; for Organs with luminescence: liver: Table 17, mice, IVIS, 4-6 h after injection, intensity relative to other organs
Protocol: The exposure time was 1 min.
Tissue luminescence signal was measured on the IVIS imaging system using an exposure time of 60 seconds using medium binning (binning=8) to ensure that the signal obtained was within operative detection range. […] Bioluminescence imaging was performed as described above.
Tissue luminescence signal was measured on the IVIS imaging system using a certain exposure time (60, 30 or 15 seconds) and medium binning (binning=8) to ensure that the signal obtained was within operative detection range.

[1] = Dimensions (size, PDI) of DNPs co-assembled from IAJDs and Luc-mRNA by DLS; format: physicochemical
How it was run: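 Hydrodynamic size and PDI were read by dynamic light scattering at 23 °C, 175° backscatter, 633 nm. Particles formed by fast injection of ethanolic IAJD stock (80 mg/mL) into nucleoside-modified luciferase mRNA (stock 4.0 mg/mL) in 10 mM acetate pH 4.0, 5 s vortex.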

[2] = Stability of DNPs by DLS after storage at 5° C.; format: physicochemical; parameters: key to Original size distribution type (DLS curve) / Size distribution type (DLS curve): U: DLS curve showed unimodal size distribution; B: DLS curve showed bimodal size distribution; M: DLS curve showed multimodal size distribution; details: for pH Sample: DNPs: IAJD 4.0 mg/mL + Luc-mRNA 0.1 mg/mL, injection in acetate buffer pH 4.00; for PDI / Size (d, nm) / Original size distribution type (DLS curve): IAJD 4.0 mg/mL + Luc-mRNA 0.1 mg/mL; for PDI / Size (d, nm): acetate buffer; for Original size distribution type (DLS curve): before storage, acetate buffer pH 4.00
Protocol: The stability of the DNPs as assayed by DLS. All the samples are prepared in acetate buffer. The stabilities of the constructs were ranked: Excellent (in bold)—the original sizes and distribution remains almost the same after storage; Good—the original relatively big sizes became smaller or broad size distribution became narrower; Not stable—the original relatively big sizes or broad size distribution remained almost the similar level, or the original relatively small sizes became bigger or narrow size distribution became broader.

[3] = Table 12, DNPs, IAJD 4 mg/mL + Luc-mRNA 0.10 mg/mL, acetate buffer 10 mM pH 4.0
[4] = Table 13, DNPs, IAJD 4 mg/mL + Luc-mRNA 0.10 mg/mL, acetate buffer pH 4.0
[5] = Table 14, DNPs, IAJD 4 mg/mL + Luc-mRNA 0.10 mg/mL, acetate buffer pH 4.0
[6] = Table 17, DNPs used in vivo, IAJD 4 mg/mL, Luc-mRNA 0.10 mg/mL, acetate pH 4.0
[7] = Table 16, DNPs from IAJD 4 mg/mL and Luc-mRNA 0.10 mg/mL by injection in acetate buffer (10 mM, pH 4.0)

SMILES	PDI [1, 3]	Size (d, nm) [1, 3] [nm]	PDI [1, 4]	Size (d, nm) [1, 4] [nm]	PDI [1, 5]	Size (d, nm) [1, 5] [nm]	PDI [1, 6]	Size (d, nm) [1, 6] [nm]	Organs with luminescence: liver (weak/strong) (liver; imaging 6 h after injection)	Organs with luminescence: liver (weak/strong) (liver; imaging 5 h after injection)	also measured
CCCCCCCCCCCCOc1cc(COC(=O)CCCN2CCN(C)CC2)cc(OCCCCCCCCCCCC)c1OCCCCCCCCCCCC [IAJD 79, 3,4,5-Tris(dodecyloxy)benzyl 4-(4-methylpiperazin-1-yl)butanoate]	0.763	352	0.763	352	0.763	352	–	–	liver (weak),	–	–
CCCCCCCCCCCCCCCCCCOc1cc(COC(=O)CCCN2CCN(C)CC2)cc(OCCCCCCCCCCC)c1 [IAJD 81, 3-(Octadecyloxy)-5-(undecyloxy)benzyl 4-(4-methylpiperazin-1-yl)butanoate]	0.287	111	0.287	111	0.287	111	0.287	111	liver (strong),	–	Organs with luminescence: liver (liver): liver (strong),
CCCCCCCCCOc1cc(COC(=O)CCCN2CCN(C)CC2)cc(OCCCCCCCCC)c1 [IAJD 77, 3,5-Bis(nonyloxy)benzyl 4-(4-methylpiperazin-1-yl)butanoate]	0.267	110	0.267	110	0.267	110	–	–	–	liver (weak),	–
CCCCCCCCCCCCCCOc1cc(COC(=O)CCCN2CCN(C)CC2)cc(OCCCCCCCCCCCCCC)c1 [IAJD 74, 3,5-Bis(tetradecyloxy)benzyl 4-(4-methylpiperazin-1-yl)butanoate]	0.317	180	0.317	180	0.317	180	–	–	–	liver (weak),	–
CCCCCCCCCCCCOc1cc(COC(=O)CCCN2CCN(CCO)CC2)cc(OCCCCCCCCCCCC)c1 [IAJD 71, 3,5-Bis(dodecyloxy)benzyl 4-(4-(2-hydroxyethyl)piperazin-1-yl)butanoate]	0.451	237	0.451	237	0.451	237	0.451	237	–	liver (weak),	Organs with luminescence: liver (liver): liver (weak),
CCCCC(CC)COc1cc(COC(=O)CCCN2CCN(C)CC2)cc(OCC(CC)CCCC)c1 (stereo not shown) [IAJD 76, 3,5-Bis((2-ethylhexyl)oxy)benzyl 4-(4-methylpiperazin-1-yl)butanoate]	0.287	78	0.287	78	0.287	78	–	–	–	liver (weak),	–

Further lines, with some results ahead:

PDI [1, 3]	Size (d, nm) [1, 3] [nm]	PDI [1, 4]	Size (d, nm) [1, 4] [nm]	PDI [1, 5]	Size (d, nm) [1, 5] [nm]	PDI [1, 6]	Size (d, nm) [1, 6] [nm]	SMILES	Organs with luminescence: liver (weak/strong) (liver; imaging 6 h after injection)	Organs with luminescence: liver (weak/strong) (liver; imaging 5 h after injection)	also measured
0.352	105	0.352	105	0.352	105	–	–	CCCCC(CC)COC(=O)CCCCOc1cc(COC(=O)CCCN2CCN(CCO)CC2)cc(OCCCCC(=O)OCC(CC)CCCC)c1 (stereo not shown) [IAJD 95]	liver (weak),	–	–
0.294	94	0.294	94	0.294	94	0.294	94	CCCCCCCCCCCCCCOc1cc(COC(=O)CCCN2CCN(C)CC2)cc(OCCCCCCCCCCC)c1 [IAJD 105, 3-(Tetradecyloxy)-5-(undecyloxy)benzyl 4-(4-methylpiperazin-1-yl)butanoate]	liver (strong),	–	Organs with luminescence: liver (liver): liver (strong),
0.482	204	0.482	204	0.482	204	–	–	CCCCC(CC)COc1cc(COC(=O)CCCN2CCN(CCO)CC2)cc(OCC(CC)CCCC)c1OCC(CC)CCCC (stereo not shown) [IAJD 97, 3,4,5-Tris((2-ethylhexyl)oxy)benzyl 4-(4-(2-hydroxyethyl)piperazin-1-yl)butanoate]	–	liver (weak),	–
0.430	143	0.430	143	0.430	143	–	–	CCCCCCCCCCCCOCC(COCCCCCCCCCCCC)(COCCCCCCCCCCCC)COC(=O)CCCN1CCN(CCO)CC1 [IAJD 83, 3-(Dodecyloxy)-2,2-bis((dodecyloxy)methyl)propyl 4-(4-(2-hydroxyethyl)piperazin-1-yl)butanoate]	–	liver (weak),	–
0.250	102	0.250	102	0.250	102	–	–	CCCCCCCOC(=O)CCCCOc1cc(COC(=O)CCCN2CCN(C)CC2)cc(OCCCCC(=O)OCCCCCCC)c1 [IAJD 85, Diheptyl 5,5′-((5-(((4-(4-methylpiperazin-1-yl)butanoyl)oxy)methyl)-1,3-phenylene)bis(oxy)) dipentanoate]	–	liver (weak),	–
0.221	187	0.221	187	0.221	187	–	–	CCCCCCCCCCCCCCCCCCOc1cc(COC(=O)CCCN2CCN(C)CC2)cc(OCCCCCCCCCCCCCCCCCC)c1 [IAJD 98, 3,5-Bis(octadecyloxy)benzyl 4-(4-methylpiperazin-1-yl)butanoate]	liver (weak),	–	–
0.498	188	0.498	188	0.498	188	–	–	CCCCCCCCCCOc1cc(COC(=O)CCCN2CCN(CCO)CC2)cc(OCCCCCCCCCC)c1 [IAJD 91, 3,5-Bis(decyloxy)benzyl 4-(4-(2-hydroxyethyl)piperazin-1-yl)butanoate]	liver (weak),	–	–
–	–	–	–	–	–	0.238	68	CCCCCCCCCCCCCCCOc1cc(COC(=O)c2cc(OCCOCCOCCCC(=O)CCCN3CCCCC3)c(OCCOCCOCCOCc3ccccc3)c(OCCOCCOCCOC(=O)CCCN3CCCCC3)c2)cc(OCCCCCCCCCCC)c1 [IAJD 157]	–	–	PDI [1, 7]: 0.238; Size (d, nm) [1, 7]: 68 nm; pH Sample [2]: 4.84; Size distribution type (DLS curve) ([2]; after 19 days at 5° C.): (U); PDI ([2]; after 19 days at 5° C.): 0.255; Size (d, nm) ([2]; after 19 days at 5° C.): 71 nm; Original size distribution type (DLS curve) [2]: (U)
–	–	–	–	–	–	0.414	228	CCCCCCCCCCCCCCOc1cc(CNC(=O)CCCN2CCN(C)CC2)cc(OCCCCCCCCCCC)c1 [IAJD 133, 4-(4-Methylpiperazin-1-yl)-N-(3-(tetradecyloxy)-5-(undecyloxy)benzyl)butanamide]	–	–	PDI [1, 7]: 0.414; Size (d, nm) [1, 7]: 228 nm; pH Sample [2]: 4.63; Size distribution type (DLS curve) ([2]; after 42 days at 5° C.): (B); PDI ([2]; after 42 days at 5° C.): 0.454; Size (d, nm) ([2]; after 42 days at 5° C.): 216 nm; Original size distribution type (DLS curve) [2]: (B)
